# Test results as given in US10738062B2, “Chromane-substituted tetracyclic compounds and uses thereof for the treatment of viral diseases” (Merck Sharp & Dohme Corp., priority 2016, dated 2020).
# Read-outs that look alike come from different tables or passages of the source.
# How the values were obtained:
# Parameters in all cases: species or system Hepatitis C virus
# [1] = system: HCV replicon 1A; assay: Cell-based HCV replicon assay (Replicon Assay A), replicon 1A; details: replicon RNA by real time PCR, day 3
# Protocol: (§1) To measure cell-based anti-HCV activity of compounds of the present invention, two complimentary assays were employed using various replicons. In the first assay (“Replicon Assay A”), replicon cells were seeded at 2000 cells/well in 384-well 384-well flat bottom tissue culture treated clear bottom plate (Corning 3707) in the presence of the test compound. Various concentrations of test compound, typically in 10 serial dilutions, were added to the assay mixture, with the starting concentration ranging from 333.3 nM to 1.667 nM. The final concentration of DMSO was 0.5%. Fetal bovine serum was 5%, in the assay media. Cells were harvested on day 3 by removing media and washing the cells with a suitable wash buffer. The cells were lysed with the addition of 1× Qiagen lysis buffer (Cat #1062731). The replicon RNA level was measured using real time PCR (TaqMan® EZ RT-PCR, Applied Biosystems 403028) with the following primers and probes: […]
# (§2) Cyclophilin RNA was used as endogenous control and was amplified in the same reaction as NS5B (multiplex PCR). The real-time RT-PCR reactions were run on ABI PRISM 7900HT Sequence Detection System using the following program: 50° C. for 2 minutes, 60° C. for 30 minutes, 95° C. for 5 minutes, 40 cycles of 94° C. for 20 sec, 55° C. for 1 minutes.
# (§3) The amount of HCV replicon RNA per cell was quantified using a linear regression curve for a known nanogram (ng) amount of HCV replicon total RNA. This was established by plotting the Cycle Threshold values (Ct) from the Neo probe and primer set versus the log (ng) for each HCV replicon total RNA standard. The amount of HCV RNA for each replicon sample was calculated by taking the sample's Ct value, minus the line intercept, divided by the slope of the line. Similarly, the amount of Cyclophilin mRNA per cell was also quantified using a linear regression curve for a known nanogram (ng) amount of HCV replicon total RNA. Again, this was established by plotting the Cycle Threshold values (Ct) from the Cyclophilin probe and primer set versus the log (ng) for each HCV replicon total RNA standard.
# (§4) The real-time RT-PCR reactions were run on ABI PRISM 7900HT or Viia7 Sequence Detection System using the following program: 48° C. for 30 minutes, 95° C. for 10 minutes, 40 cycles of 95° C. for 15 sec, 60° C. for 1 minutes. The 50% effective concentration (EC50) was the drug concentration necessary to achieve an increase in the cycle threshold (CT) of 1 over the projected baseline CT.
# (§5) Data was obtained for various compounds of the present invention using the methods described in the Example above, and is presented in the table immediately below. EC50 data for replicons 1A, 1AY93H and 2B were obtained using Replicon Assay A and EC50 data for replicon 1B was obtained using Replicon Assay B.
# [2] = system: HCV replicon 1B; assay: Cell-based HCV replicon assay (Replicon Assay B), replicon 1B; details: replicon RNA by real-time PCR, 3 days
# Protocol: In an alternate assay (“Replicon Assay B”), 1000 cells were seeded per well in a 384-well collagen coated black plate from Greiner bio-one (Cat #781946) in 5% FBS. Inhibitors of this invention were added at 24 h post-seeding, and the plates were incubated for 3 days. Cells were subsequently lysed with Qiagen lysis buffer (Cat #1062731) to extract the RNA. HCV replicon RNA level was measured by real-time PCR using the RNA-to-CT kit from Applied Biosystem (Cat #4392656) and genotype-specific primers and probes. The amplicon was located within NS5B. […] (SEQ. ID NO. 2); the probe sequence was FAM-labeled […] (SEQ. ID NO. 3).
# The real-time RT-PCR reactions were run on ABI PRISM 7900HT or Viia7 Sequence Detection System using the following program: 48° C. for 30 minutes, 95° C. for 10 minutes, 40 cycles of 95° C. for 15 sec, 60° C. for 1 minutes.
# EC50 data for replicons 1A, 1AY93H and 2B were obtained using Replicon Assay A and EC50 data for replicon 1B was obtained using Replicon Assay B.
# [3] = system: HCV replicon 2B; assay: Cell-based HCV replicon assay (Replicon Assay A), replicon 2B; details: replicon RNA by real time PCR, day 3
# Protocol: as §1, §2, §3, §4, §5
# [4] = system: HCV replicon 1A Y93H; assay: Cell-based HCV replicon assay (Replicon Assay A), replicon 1AY93H; details: replicon RNA by real time PCR, day 3
# Protocol: as §1, §2, §3, §4, §5
# [5] = read-out: EC50 replicon 2B, Replicon Assay A
# [6] = read-out: EC50 replicon 1A Y93H, Replicon Assay A
Structure (SMILES),EC50 [1] [pM],EC50 [2] [pM],"EC50 [3, 5] [pM]","EC50 [4, 6] [pM]","EC50 ([1]; Hepatitis C virus, 72 h) [pM]","EC50 ([2]; Hepatitis C virus, 72 h) [pM]","EC50 ([3]; Hepatitis C virus, 72 h, read-out: EC50 replicon 2B, Replicon Assay A) [pM]","EC50 ([4]; Hepatitis C virus, 72 h, read-out: EC50 replicon 1A Y93H, Replicon Assay A) [pM]"
"COC(=O)N[C@H](C(=O)N1CCC[C@H]1c1ncc(-c2ccc3c(c2)cc2n3C(c3ccc4c(c3)OCCC4)Oc3cc(-c4cnc([C@@H]5CCCN5C(=O)[C@@H](NC(=O)OC)C5CCOCC5)[nH]4)cc(F)c3-2)[nH]1)C(C)C (single isomer, unassigned) [Compound 34]",2.1,3,5,8,–,–,–,–
"COC(=O)N[C@H](C(=O)N1CCC[C@H]1c1ncc(-c2cc(F)c3c(c2)OC(c2ccc4c(c2)CCCO4)n2c-3cc3cc(-c4cnc([C@@H]5CCCN5C(=O)[C@@H](NC(=O)OC)C5CCOCC5)[nH]4)ccc32)[nH]1)C(C)C (single isomer, unassigned) [Compound 35]",–,–,–,61,3.4,1.2,258,–
"CCO[C@H](C)[C@H](NC(=O)OC)C(=O)N1CCC[C@H]1c1ncc(-c2cc(F)c3c(c2)OC(c2ccc4c(c2)OCCC4)n2c-3cc3cc(-c4cnc([C@@H]5CCCN5C(=O)[C@@H](NC(=O)OC)C(C)C)[nH]4)ccc32)[nH]1 (single isomer, unassigned) [Compound 39]",–,–,910,3380,1.7,1.4,–,–
"CCO[C@H](C)[C@H](NC(=O)OC)C(=O)N1CCC[C@H]1c1ncc(-c2cc(F)c3c(c2)OC(c2ccc4c(c2)OCCC4)n2c-3cc3cc(-c4cnc([C@@H]5CCCN5C(=O)[C@@H](NC(=O)OC)C(C)C)[nH]4)ccc32)[nH]1 (single isomer, unassigned) [Compound 40]",2.1,2.2,86,107,–,–,–,–
"COC(=O)NC(C(=O)N1CCC[C@H]1c1ncc(-c2ccc3c(c2)cc2n3C(c3ccc4c(c3)OCCC4)Oc3cc(-c4cnc([C@@H]5CCCN5C(=O)[C@@H](NC(=O)OC)C(C)C)[nH]4)cc(F)c3-2)[nH]1)C(C)(C)F (single isomer, unassigned) [Compound 43]",–,–,81,–,2.2,2.3,–,75
"COC(=O)N[C@H](C(=O)N1CCC[C@H]1c1ncc(-c2cc(F)c3c(c2)OC(c2ccc4c(c2)OCC4)n2c-3cc3cc(-c4cnc([C@@H]5C[C@H]6C[C@H]6N5C(=O)[C@@H](NC(=O)OC)C(C)C)[nH]4)ccc32)[nH]1)C(C)C (single isomer, unassigned) [Compound 48]",–,–,382,33,1.9,1.5,–,–
"COC(=O)NC(C(=O)N1CCC[C@H]1c1ncc(-c2ccc3c(c2)cc2n3C(c3ccc4c(c3)CCCO4)Oc3cc(-c4cnc([C@@H]5CCCN5C(=O)[C@@H](NC(=O)OC)C(C)C)[nH]4)cc(C)c3-2)[nH]1)C1C[C@@H](C)O[C@@H](C)C1 (single isomer, unassigned) [Compound 84]",2,–,193,674,–,–,–,–
"COC(=O)NC(C(=O)N1CCC[C@H]1c1ncc(-c2ccc3c(c2)cc2n3C(c3ccc4c(c3)OCCC4)Oc3cc(-c4cnc([C@@H]5CCCN5C(=O)[C@@H](NC(=O)OC)C(C)C)[nH]4)cc(C)c3-2)[nH]1)C1C[C@@H](C)O[C@@H](C)C1 (single isomer, unassigned) [Compound 85]",–,–,70,575,2.7,–,–,–
"COC(=O)N[C@H](C(=O)N1CCC[C@H]1c1ncc(-c2cc(F)c3c(c2)OC(c2ccc4c(c2)OCCC4)n2c-3c(F)c3cc(-c4cnc([C@@H]5CCCN5C(=O)[C@@H](NC(=O)OC)C5CCOCC5)[nH]4)ccc32)[nH]1)C(C)C (single isomer, unassigned) [Compound 91]",–,–,123,893,1.1,–,–,–
